Assay results published in article PMC7160231, “Identification and Immobilization of an Invertase With High Specific Activity and Sucrose Tolerance Ability of Gongronella sp. w5 for High Fructose Syrup Preparation” (Frontiers in Microbiology, 2020).

Key:
GspInv = system: T1, GspInv; experiment: initial rate, released glucose by glucose oxidase method, Michaelis-Menten fit; format: biochemical, Gongronella sp. w5; details: 50 mM citrate-phosphate pH 5.0, 45°C, 1 mM-2 M sucrose
T1 construct: secreted from Komagataella (Pichia) pastoris GS115 with alpha-factor signal of pPIC9K; cDNA 1,761 bp; primer-encoded N-terminus MVLADP, C-terminus FNRP; catalytic D46, D173, E251
Excerpt: initial rate, released glucose by glucose oxidase method, Michaelis-Menten fit on GspInv

CBM24DG-GspInv = system: T2, CBM24DG-GspInv; experiment: as above; format: biochemical, Gongronella sp. w5; details: 50 mM citrate-phosphate pH 5.0, 45°C, 1 mM-2 M sucrose; free (not immobilised) fusion enzyme
T2 construct: Clostridium thermocellum CBM24 fused to N-terminus of GspInv; secreted from K. pastoris GS115 (pPIC9K)
Excerpt: initial rate, released glucose by glucose oxidase method, Michaelis-Menten fit on CBM24DG-GspInv

## OC[C@H]1O[C@@](CO)(O[C@H]2O[C@H](CO)[C@@H](O)[C@H](O)[C@H]2O)[C@@H](O)[C@@H]1O [sucrose]
GspInv
  Km: 8.7 ± 1.1 mM
CBM24DG-GspInv
  Km: 10.3 ± 1.2 mM
